Holding throughout (format): cell-based
Experiment [1] has as its system Pseudomonas aeruginosa ATCC 27853. Kind of experiment: Antibacterial activity, MIC, procedure A (broth dilution). The settings on record: ATCC27853. As to the method: (§1) The compounds of the invention are tested for their antibacterial activity. The test can be carried out in two ways:
(§2) A. The organisms used in the test comprise the following: Staphylococcus aureus (penicillin-sensitive and resistant), Pseudomonas aeruginosa, Escherichia coli, […], Bordetella bronchiseptica, Proteus vulgaris, P. mirabilis, Acinetobacter calcoaceticus.
(§3) Test organisms may be added or deleted in order to reflect current clinical patterns of antibiotic susceptibility or shifts in pathogenic potential.
(§4) Stock solution of appropriate medium (e.g. Mueller-Hinton Broth) is sterilized. Starting at a predetermined concentration (e.g. 250 μg/ml), two-fold dilutions are made with the Dynatech Automatic Diluter in a Microtiter plate of 8 rows of 12 wells each in which 11 wells in each row contain 50 μl of medium (e.g. Mueller-Hinton Broth) and the 12th well contains in 100 μl an aliquot of the compound to be tested. The diluted plates are inoculated using the Dynatech Automatic Inoculator which delivers the final inoculum (e.g. 10^5 cfu/ml of a seven-hour culture which has been incubated at 35° C.).
(§5) Plates are sealed with tape and incubated (e.g. 18 hours at 35° C.).

The subject of experiment [2] is Streptococcus faecalis ATCC 29212. The experiment is described as above. The settings on record: Enterococcus faecalis, ATCC29212. As to the method: as §1, §2, §3, §4, §5
The test system of experiment [3] is Proteus vulgaris A 84354 1. The description is as above. The settings on record: A843541. As to the method:
as §1, §2, §3, §4, §5

Experiment [4] concerns Escherichia coli ATCC 25922. Described as above. The settings on record: ATCC25922. As to the method: as §1, §2, §3, §4, §5
The test system of experiment [5] is Staphylococcus aureus ATCC 29213. The description is as above. The settings on record: ATCC29213. As to the method:
as §1, §2, §3, §4, §5

The subject of experiment [6] is Enterobacter cloacae ATCC 13047. Described as above. The settings on record: ATCC13047. On the procedure: as §1, §2, §3, §4, §5
In experiment [7] the test system is Serratia marcescens ATCC 13880. The experiment is described as above. The settings on record: ATCC13880. On the procedure: as §1, §2, §3, §4, §5
Experiment [8] deals with Klebsiella pneunomiae KL-1. The description is as above. The settings on record: KL1. On the procedure:
as §1, §2, §3, §4, §5

Experiment [9] deals with Pseudomonas aeruginosa ATCC 27853. Kind of experiment: Antibacterial activity, MIC, procedure B (agar dilution). The settings on record: ATCC27853. On the procedure:
as §1
(§6) B. The organisms used in the test comprise the following: Staphylococcus aureus (penicillin-sensitive and resistant), Pseudomonas aeruginosa, Escherichia coli, […], Bordetella bronchiseptica, Proteus vulgaris, P. mirabilis, Acinetobacter calcoaceticus.
as §3
(§7) Organisms are normally grown for 18 hours in Brain Heart Infusion at 35° C. Cultures are adjusted with saline to MacFarland No. 1.5 standard prior to use.
(§8) Stock concentrations (e.g. 2,5000 μg or units per ml) are prepared in a suitable vehicle. Two-fold dilutions are made. One ml quantities of each dilution are incorporated in 9 ml of the appropriate agar (e.g. Seed) in sterile Petri plates. The hardened surface is inoculated with test organisms by use of a Steers replicating device. The plates are incubated (e.g. 18 hours at 35° C.) and activity is determined.

For experiment [10], the system named is Streptococcus faecalis ATCC 29212. Described as above. The settings on record: Enterococcus faecalis, ATCC29212. On the procedure:
as §1, §6, §3, §7, §8

Experiment [11] deals with Proteus vulgaris A 84354 1. The experiment is described as above. The settings on record: A843541. As to the method:
as §1, §6, §3, §7, §8

The test system of experiment [12] is Escherichia coli ATCC 25922. The experiment is described as above. The settings on record: ATCC25922. As to the method:
as §1, §6, §3, §7, §8

Experiment [13] has as its system Staphylococcus aureus ATCC 29213. The experiment is described as above. The settings on record: ATCC29213. On the procedure: as §1, §6, §3, §7, §8
The subject of experiment [14] is Enterobacter cloacae ATCC 13047. The description is as above. The settings on record: ATCC13047. As to the method: as §1, §6, §3, §7, §8
Experiment [15] deals with Serratia marcescens ATCC 13880. The description is as above. The settings on record: ATCC13880. As to the method: as §1, §6, §3, §7, §8
Experiment [16] deals with Klebsiella pneunomiae KL-1. The experiment is described as above. The settings on record: KL1. As to the method:
as §1, §6, §3, §7, §8

Each structure is given as a SMILES string. ≈ marks a conversion by molar mass, not a printed value. Where a name gives a salt, the structure may show the parent alone.

On to `CO/N=C(\C(=O)N[C@@H]1C(=O)N2C(C(=O)O)=C(CN3C(=O)c4ccccc4NS3(=O)=O)CS[C@H]12)c1csc(N)n1` [Example 2 C, (6R,7R)-7-[[(Z)-(2-Amino-4-thiazolyl)(methoxyimino)acetyl]amino]-3-[(1,4-dihydro-4-oxo-3H-2,1,3-benzothiadiazin-3-yl)methyl]-8-oxo-5-thia-1-azabicyclo[4.2.0]oct-2-ene-2-carboxylic acid S^3, S^3-dioxide, trifluoroacetate salt], for which the MIC came to 128 µg/mL in experiment [1]; 128 µg/mL in experiment [2]; 0.25 µg/mL in [3]; 4 µg/mL in [4]; 32 µg/mL in experiment [5]; 64 µg/mL in [6]. Also, the MIC in experiment [7] came to 16 µg/mL; in experiment [8], 2 µg/mL.

For the compound `CO/N=C(\C(=O)N[C@@H]1C(=O)N2C(C(=O)OC(C)(C)C)=C(CN3C(=O)C(C#N)=CNS3(=O)=O)CS[C@H]12)c1csc(N)n1` [Example 1 B, (6R,7R)-7-[[(Z)-(2-Amino-4-thiazolyl)(methoxyimino)acetyl]amino]-3-[(4-cyano-3,6-dihydro-3-oxo-2H-1,2,6-thiadiazin-2-yl)methyl]-8-oxo-5-thia-1-azabicyclo[4.2.0]oct-2-ene-2-carboxylic acid 1,1-dimethylethyl ester S^3, S^3-dioxide], the MIC was 256 µg/mL (≈ 410 µM) in [9]; 256 µg/mL (≈ 410 µM) in [10]; 0.25 µg/mL (≈ 0.4 µM) in [11]; 2 µg/mL (≈ 3.2 µM) in experiment [12]; 64 µg/mL (≈ 102 µM) in experiment [13]; 64 µg/mL (≈ 102 µM) in experiment [14]. Besides, the MIC in experiment [15] stood at 32 µg/mL (≈ 51.2 µM); in experiment [16] it was 1 µg/mL (≈ 1.6 µM).

With `CO/N=C(\C(=O)N[C@@H]1C(=O)N2C(C(=O)OC(C)(C)C)=C(CN3C(=O)c4ccccc4NS3(=O)=O)CS[C@H]12)c1csc(N)n1` [Example 2 B, (6R,7R)-7-[[(Z)-(2-Amino-4-thiazolyl)(methoxyimino)acetyl]amino]-3-[(1,4-dihydro-4-oxo-3H-2,1,3-benzothiadiazin-3-yl)methyl]-8-oxo-5-thia-1-azabicyclo[4.2.0]oct-2-ene-2-carboxylic acid 1,1-dimethylethyl ester, S^3, S^3-dioxide], the MIC in experiment [1] is 128 µg/mL (≈ 197 µM); in [2], 128 µg/mL (≈ 197 µM); in experiment [3], 1 µg/mL (≈ 1.54 µM); in [4] it was 8 µg/mL (≈ 12.3 µM); in [5], 64 µg/mL (≈ 98.5 µM); in experiment [6], 64 µg/mL (≈ 98.5 µM). The MIC in [7] is 64 µg/mL (≈ 98.5 µM); in [8], 4 µg/mL (≈ 6.16 µM).

With `CO/N=C(\C(=O)N[C@@H]1C(=O)N2C(C(=O)O)=C(CN3C(=O)C(C#N)=CNS3(=O)=O)CS[C@H]12)c1csc(N)n1` [Example 1 C, (6R,7R)-7-[[(Z)-(2-Amino-4-thiazolyl)(methoxyimino)acetyl]amino]-3-[(4-cyano-3,6-dihydro-3-oxo-2H-1,2,6-thiadiazin-2-yl)methyl]-8-oxo-5-thia-1-azabicyclo[4.2.0]oct-2-ene-2-carboxylic acid, S^3, S^3-dioxide, trifluoroacetate salt], the MIC amounted to 256 µg/mL in experiment [9]; 128 µg/mL in experiment [10]; 1 µg/mL in experiment [11]; 1 µg/mL in [12]; 32 µg/mL in experiment [13]; 32 µg/mL in experiment [14]. Also, the minimal inhibitory concentration (MIC) in [15] was found to be 8 µg/mL; in experiment [16], 0.125 µg/mL.
